Measurements as given in the NIST ThermoML archive (doi:10.1021/je0340248).
± gives the expanded uncertainty stated by the source.

Test: xn = mol fraction of the nth substance listed
Conditions: 101 kPa, Liquid

OCCOCCOCCO [triethylene glycol] + CCOC(C)=O
Conditions | mass density, 298.15 K [kg/m3] | mass density, 303.15 K [kg/m3] | mass density, 308.15 K [kg/m3] | mass density, 313.15 K [kg/m3] | speed of sound, 298.15 K [m/s] | speed of sound, 308.15 K [m/s] | viscosity, 298.15 K [mPa·s] | viscosity, 308.15 K [mPa·s]
x2 = 0.0466 | 1112.15 ± 0.32 | 1108.39 ± 0.32 | 1104.32 ± 0.31 | 1101.76 ± 0.3 | 1592 ± 2 | 1567 ± 2 | 30.14 ± 0.4 | 18.65 ± 0.31
x2 = 0.1482 | 1095.3 ± 0.33 | 1091.27 ± 0.32 | 1086.97 ± 0.32 | 1084.07 ± 0.32 | 1547 ± 2 | 1523 ± 2 | 22.05 ± 0.31 | 13.71 ± 0.23
x2 = 0.25 | 1077.4 ± 0.34 | 1073.02 ± 0.34 | 1068.55 ± 0.34 | 1065.26 ± 0.34 | 1499 ± 2 | 1473 ± 2 | 15.58 ± 0.22 | 9.818 ± 0.16
x2 = 0.3499 | 1058.65 ± 0.38 | 1053.94 ± 0.38 | 1049.34 ± 0.38 | 1045.63 ± 0.39 | 1452 ± 2 | 1426 ± 2 | 10.73 ± 0.16 | 6.905 ± 0.12
x2 = 0.4493 | 1038.63 ± 0.43 | 1033.67 ± 0.43 | 1028.96 ± 0.44 | 1024.82 ± 0.45 | 1408 ± 2 | 1379 ± 2 | 7.167 ± 0.11 | 4.749 ± 0.084
x2 = 0.4995 | 1027.95 ± 0.46 | 1022.9 ± 0.46 | 1018.12 ± 0.47 | 1013.77 ± 0.48 | 1386 ± 2 | 1356 ± 2 | 5.775 ± 0.091 | 3.896 ± 0.068
x2 = 0.5503 | 1016.71 ± 0.48 | 1011.6 ± 0.49 | 1006.75 ± 0.5 | 1002.18 ± 0.51 | 1363 ± 2 | 1333 ± 2 | 4.602 ± 0.075 | 3.168 ± 0.055
x2 = 0.6497 | 993.4 ± 0.55 | 988.21 ± 0.56 | 983.2 ± 0.57 | 978.19 ± 0.59 | 1318 ± 2 | 1286 ± 2 | 2.881 ± 0.048 | 2.076 ± 0.035
x2 = 0.749 | 968.18 ± 0.62 | 962.95 ± 0.64 | 957.73 ± 0.65 | 952.29 ± 0.67 | 1271 ± 2 | 1236 ± 2 | 1.748 ± 0.03 | 1.329 ± 0.022
x2 = 0.8503 | 940.27 ± 0.72 | 934.9 ± 0.73 | 929.41 ± 0.75 | 923.53 ± 0.77 | 1220 ± 2 | 1181 ± 2 | 1.015 ± 0.018 | 0.823 ± 0.014
x2 = 0.9417 | 913.03 ± 0.81 | 907.33 ± 0.83 | 901.55 ± 0.84 | 895.28 ± 0.87 | 1171 ± 2 | 1130 ± 2 | 0.604 ± 0.011 | 0.523 ± 0.01

OCCOCCOCCO [triethylene glycol] + COC(C)=O
Conditions | mass density, 298.15 K [kg/m3] | mass density, 303.15 K [kg/m3] | mass density, 308.15 K [kg/m3] | mass density, 313.15 K [kg/m3] | speed of sound, 298.15 K [m/s] | speed of sound, 308.15 K [m/s] | viscosity, 298.15 K [mPa·s] | viscosity, 308.15 K [mPa·s]
x2 = 0.0455 | 1115.19 ± 0.33 | 1111.41 ± 0.32 | 1107.51 ± 0.31 | 1105.03 ± 0.31 | 1598 ± 2 | 1572 ± 2 | 32.01 ± 0.43 | 19.45 ± 0.33
x2 = 0.1522 | 1103.73 ± 0.34 | 1099.72 ± 0.33 | 1095.8 ± 0.33 | 1093.05 ± 0.32 | 1559 ± 2 | 1533 ± 2 | 25.74 ± 0.36 | 15.15 ± 0.27
x2 = 0.2512 | 1091.78 ± 0.35 | 1087.49 ± 0.35 | 1083.5 ± 0.34 | 1080.38 ± 0.34 | 1521 ± 2 | 1493 ± 2 | 19.76 ± 0.28 | 11.49 ± 0.21
x2 = 0.3504 | 1078.53 ± 0.37 | 1073.91 ± 0.37 | 1069.84 ± 0.37 | 1066.3 ± 0.37 | 1482 ± 2 | 1452 ± 2 | 14.27 ± 0.21 | 8.336 ± 0.16
x2 = 0.4457 | 1064.43 ± 0.4 | 1059.49 ± 0.4 | 1055.35 ± 0.4 | 1051.39 ± 0.41 | 1446 ± 2 | 1414 ± 2 | 9.869 ± 0.15 | 5.882 ± 0.11
x2 = 0.49 | 1057.35 ± 0.42 | 1052.25 ± 0.42 | 1048.08 ± 0.42 | 1043.93 ± 0.43 | 1428 ± 2 | 1396 ± 2 | 8.158 ± 0.13 | 4.935 ± 0.096
x2 = 0.5519 | 1046.77 ± 0.44 | 1041.46 ± 0.45 | 1037.27 ± 0.45 | 1032.85 ± 0.46 | 1402 ± 2 | 1369 ± 2 | 6.128 ± 0.099 | 3.806 ± 0.072
x2 = 0.6512 | 1027.79 ± 0.48 | 1022.13 ± 0.49 | 1017.92 ± 0.5 | 1013.08 ± 0.51 | 1357 ± 2 | 1323 ± 2 | 3.687 ± 0.063 | 2.422 ± 0.043
x2 = 0.7516 | 1005.3 ± 0.54 | 999.28 ± 0.55 | 995.06 ± 0.56 | 989.76 ± 0.57 | 1305 ± 2 | 1268 ± 2 | 2.075 ± 0.036 | 1.467 ± 0.025
x2 = 0.8513 | 978.49 ± 0.61 | 972.08 ± 0.63 | 967.82 ± 0.64 | 962.01 ± 0.66 | 1246 ± 2 | 1206 ± 2 | 1.103 ± 0.02 | 0.854 ± 0.015
x2 = 0.9424 | 948.8 ± 0.71 | 941.98 ± 0.72 | 937.63 ± 0.74 | 931.21 ± 0.75 | 1188 ± 2 | 1143 ± 2 | 0.587 ± 0.011 | 0.501 ± 0.009
